Test results as given in US20100041089A1, “IMPROVED METHOD FOR DETECTING CHEMICAL […]” (priority 2006, published 2010).

Tested on: yeast genes (expressed mRNA)
Assay: DNA chip measurement of expressed mRNA of yeast genes after culture with a toxic chemical substance
Format: cell-based, Saccharomyces cerevisiae S288C
Conditions: for level of expressed mRNA in the presence of chemical substance / level in the absence of chemical substance: cultured two hours with the chemical substance; for The level of expressed mRNA in the presence of chemical substance/The level of expressed mRNA in the absence of chemical substance: cultured two hours with substance
Summary of the method: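 S. cerevisiae S288C grown at 25 °C in YPD, exposed in log phase for 2 h to a toxicant at growth-inhibiting, non-lethal concentration. Cy3/Cy5-labelled cDNA from poly(A) mRNA hybridized to whole-genome chip at 65 °C >12 h. Ratio to untreated control, ≥2 significant.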

For Na2As [(1)], which “level of expressed mRNA in the presence of chemical substance / level in the absence of chemical substance” value (yeast gene YNL058C) is on record?
The value was 2.0.

What about the “level of expressed mRNA in the presence of chemical substance / level in the absence of chemical substance” value (yeast gene YNL063W) of the same substance?
The value was 0.9.

What about the “The level of expressed mRNA in the presence of chemical substance/The level of expressed mRNA in the absence of chemical substance” value (yeast gene YNL074C) of the same substance?
Its value is 0.9.

And the “The level of expressed mRNA in the presence of chemical substance/The level of expressed mRNA in the absence of chemical substance” value (yeast gene YNL092W)?
Its value is 1.3.

And the “The level of expressed mRNA in the presence of chemical substance/The level of expressed mRNA in the absence of chemical substance” value (yeast gene YNL115C)?
Its value is 0.7.

And the “The level of expressed mRNA in the presence of chemical substance/The level of expressed mRNA in the absence of chemical substance” value (yeast gene YNL156C)?
The value was 1.1.

What about the “level of expressed mRNA in the presence of chemical substance / level in the absence of chemical substance” value (yeast gene YNL176C) of the same substance?
Its value is 1.1.

What about the “level of expressed mRNA in the presence of chemical substance / level in the absence of chemical substance” value (yeast gene YNL194C) of the same substance?
Its value is 1.6.

What about the “level of expressed mRNA in the presence of chemical substance / level in the absence of chemical substance” value (yeast gene YNL200C) of the same substance?
The value was 1.0.

And the “The level of expressed mRNA in the presence of chemical substance/The level of expressed mRNA in the absence of chemical substance” value (yeast gene YNL234W)?
The value was 1.1.

And the “level of expressed mRNA in the presence of chemical substance / level in the absence of chemical substance” value (yeast gene YNL253W)?
Its value is 1.3.

And the “level of expressed mRNA in the presence of chemical substance / level in the absence of chemical substance” value (yeast gene YNL276C)?
Its value is 1.3.

What about the “The level of expressed mRNA in the presence of chemical substance/The level of expressed mRNA in the absence of chemical substance” value (yeast gene YNL281W) of the same substance?
The value was 1.0.

What about the “The level of expressed mRNA in the presence of chemical substance/The level of expressed mRNA in the absence of chemical substance” value (yeast gene YNL305C) of the same substance?
Its value is 0.9.

And the “level of expressed mRNA in the presence of chemical substance / level in the absence of chemical substance” value (yeast gene YNR051C)?
Its value is 0.7.

What about the “The level of expressed mRNA in the presence of chemical substance/The level of expressed mRNA in the absence of chemical substance” value (yeast gene YNR068C) of the same substance?
Its value is 1.2.

What about the “level of expressed mRNA in the presence of chemical substance / level in the absence of chemical substance” value (yeast gene YOL026C) of the same substance?
The value was 1.2.

What about the “The level of expressed mRNA in the presence of chemical substance/The level of expressed mRNA in the absence of chemical substance” value (yeast gene YOL032W) of the same substance?
The value was 1.3.

What about the “The level of expressed mRNA in the presence of chemical substance/The level of expressed mRNA in the absence of chemical substance” value (yeast gene YOL036W) of the same substance?
The value was 0.8.

And the “The level of expressed mRNA in the presence of chemical substance/The level of expressed mRNA in the absence of chemical substance” value (yeast gene YOL047C)?
Its value is 1.4.

And the “The level of expressed mRNA in the presence of chemical substance/The level of expressed mRNA in the absence of chemical substance” value (yeast gene YOL071W)?
The value was 1.3.

What about the “The level of expressed mRNA in the presence of chemical substance/The level of expressed mRNA in the absence of chemical substance” value (yeast gene YOL082W) of the same substance?
Its value is 1.0.

What about the “The level of expressed mRNA in the presence of chemical substance/The level of expressed mRNA in the absence of chemical substance” value (yeast gene YOL083W) of the same substance?
The value was 1.1.

What about the “The level of expressed mRNA in the presence of chemical substance/The level of expressed mRNA in the absence of chemical substance” value (yeast gene YOL117W) of the same substance?
The value was 1.0.

And the “The level of expressed mRNA in the presence of chemical substance/The level of expressed mRNA in the absence of chemical substance” value (yeast gene YOL131W)?
The value was 1.0.

What about the “The level of expressed mRNA in the presence of chemical substance/The level of expressed mRNA in the absence of chemical substance” value (yeast gene YOL150C) of the same substance?
Its value is 4.1.

What about the “The level of expressed mRNA in the presence of chemical substance/The level of expressed mRNA in the absence of chemical substance” value (yeast gene YOL162W) of the same substance?
The value was 2.0.

What about the “The level of expressed mRNA in the presence of chemical substance/The level of expressed mRNA in the absence of chemical substance” value (yeast gene YOR019W) of the same substance?
Its value is 2.9.

And the “level of expressed mRNA in the presence of chemical substance / level in the absence of chemical substance” value (yeast gene YOR022C)?
Its value is 1.3.

And the “level of expressed mRNA in the presence of chemical substance / level in the absence of chemical substance” value (yeast gene YOR087W)?
The value was 0.7.

And the “level of expressed mRNA in the presence of chemical substance / level in the absence of chemical substance” value (yeast gene YOR138C)?
Its value is 0.8.

And the “The level of expressed mRNA in the presence of chemical substance/The level of expressed mRNA in the absence of chemical substance” value (yeast gene YOR197W)?
The value was 0.8.

And the “level of expressed mRNA in the presence of chemical substance / level in the absence of chemical substance” value (yeast gene YOR253W)?
Its value is 0.9.

What about the “level of expressed mRNA in the presence of chemical substance / level in the absence of chemical substance” value (yeast gene YOR267C) of the same substance?
Its value is 0.8.

And the “level of expressed mRNA in the presence of chemical substance / level in the absence of chemical substance” value (yeast gene YOR325W)?
The value was 1.0.

And the “level of expressed mRNA in the presence of chemical substance / level in the absence of chemical substance” value (yeast gene YPL005W)?
Its value is 1.0.

And the “The level of expressed mRNA in the presence of chemical substance/The level of expressed mRNA in the absence of chemical substance” value (yeast gene YPL087W)?
The value was 1.0.

What about the “level of expressed mRNA in the presence of chemical substance / level in the absence of chemical substance” value (yeast gene YPL150W) of the same substance?
Its value is 0.7.

And the “level of expressed mRNA in the presence of chemical substance / level in the absence of chemical substance” value (yeast gene YPL152W)?
The value was 1.4.

What about the “level of expressed mRNA in the presence of chemical substance / level in the absence of chemical substance” value (yeast gene YPL168W) of the same substance?
The value was 1.1.

And the “level of expressed mRNA in the presence of chemical substance / level in the absence of chemical substance” value (yeast gene YPL180W)?
The value was 0.9.

And the “level of expressed mRNA in the presence of chemical substance / level in the absence of chemical substance” value (yeast gene YPL188W)?
The value was 1.3.

And the “The level of expressed mRNA in the presence of chemical substance/The level of expressed mRNA in the absence of chemical substance” value (yeast gene YPL196W)?
Its value is 1.3.

What about the “The level of expressed mRNA in the presence of chemical substance/The level of expressed mRNA in the absence of chemical substance” value (yeast gene YPL206C) of the same substance?
Its value is 1.0.

And the “level of expressed mRNA in the presence of chemical substance / level in the absence of chemical substance” value (yeast gene YPL221W)?
Its value is 0.9.

What about the “The level of expressed mRNA in the presence of chemical substance/The level of expressed mRNA in the absence of chemical substance” value (yeast gene YPL222W) of the same substance?
The value was 0.9.

And the “level of expressed mRNA in the presence of chemical substance / level in the absence of chemical substance” value (yeast gene YPL225W)?
Its value is 1.3.

And the “The level of expressed mRNA in the presence of chemical substance/The level of expressed mRNA in the absence of chemical substance” value (yeast gene YPR023C)?
Its value is 1.2.

And the “level of expressed mRNA in the presence of chemical substance / level in the absence of chemical substance” value (yeast gene YPR049C)?
The value was 1.0.

What about the “level of expressed mRNA in the presence of chemical substance / level in the absence of chemical substance” value (yeast gene YPR146C) of the same substance?
The value was 0.8.

What about the “level of expressed mRNA in the presence of chemical substance / level in the absence of chemical substance” value (yeast gene YPR148C) of the same substance?
The value was 1.1.

And the “The level of expressed mRNA in the presence of chemical substance/The level of expressed mRNA in the absence of chemical substance” value (yeast gene YPR151C)?
Its value is 2.3.

What about the “level of expressed mRNA in the presence of chemical substance / level in the absence of chemical substance” value (yeast gene YPR172W) of the same substance?
Its value is 1.1.
